From patent US9814747B2, “Methods for inhibiting HIV-1 activity by inhibitory mechanisms of extracts of Guaiacum officinale L. (Zygophyllaceae)” (priority 2014, dated 2017)

Legend:
[1] = test system: 3 cancer cell lines; assay: cell proliferation assay against cancer cell lines; format: cell-based; conditions: result in words
[2] = test system: HIV-1 BaL; assay: anti-HIV bioassay: HIV-1 p24 production in infected PHA-activated PBMCs (ELISA, day 7); format: cell-based; conditions: PBMCs infected with HIV-1 BaL; result in words
Description: Stocks of crude drug made from G. officinale L. were prepared in Dimethyl sulfoxide (DMSO) in a stock solution of 10 mg/ml. Dilutions from the stock were made and the final concentration of DMSO in the cultures was always <0.1% to avoid cell toxicity. Peripheral blood mononuclear cells (PBMCs) were separated from buffy coats of HIV-1 seronegative donors (New York Blood Center, NY) by density centrifugation over Ficoll-Hypaque (Sigma). Briefly, the buffy coat suspension was diluted 1:2 with phosphate-buffered saline solution (PBS). Then, 35 ml were layered onto 15 ml of Ficoll® Paque PLUS (GE Healthcare), a ready to use sterile medium for isolation of lymphocytes and were centrifuged by standard ficoll-paque gradient centrifugation according to manufacturer's protocol (GE Healthcare) for 25 min at 400×g. The white interphase containing the PBMCs was collected and washed three times with PBS. […] On day 7, HIV-1 p24 protein production in the culture supernatant was measured using a commercial ELISA kit (Coulter, Hialeah, Fla.) and cell viability using a colorimetric MTT kit (Roche). […] The quantity of formazan produced (absorbance at 490 nm) is directly proportional to the number of living cells. […] MTT conversion to formazan by mitochondrial dehydrogenase was assayed by optical density at 490 nm measured in an ELISA plate reader. […]

[3] = test system: Pseudomonas pseudomaliae; conditions: result in words; cited from earlier work
[4] = test system: brine shrimp; conditions: result in words; cited from earlier work

Row | Compound | activity against 3 cancer cell lines [1] | Anti-HIV-1 activity [2] | antibacterial activity against Pseudomonas pseudomaliae [3] | brine shrimp toxicity [4]
1 | CC1(C)CC[C@]2(C(=O)O)CC[C@]3(C)C(=CC[C@@H]4[C@@]5(C)CC[C@H](O[C@@H]6OC[C@@H](O)[C@H](OC7O[C@H](CO)[C@H](O)[C@H](O)[C@H]7O)[C@H]6O)C(C)(C)[C@@H]5CC[C@]43C)[C@@H]2C1 (stereo partly shown) [HL-038] | moderate activity | moderate activity |  | 
2 | guaianin N |  |  | antibacterial activity | toxicity
